Experimental data from US10179914B2, “CDC25A inhibitor for the treatment of drug resistant cancer or for the prevention of tumor relapse” (INSERM (INSTITUT NATIONAL DE LA SANTÉ ET DE LA RECHERCHE …, priority 2014, dated 2019).

Assays:
[1] = test system: TF-1 cells (FLT3 wild type); test: Cell proliferation, trypan blue counting, TF-1; format: cell-based, human; conditions: 200 nM
Experimental: (§1) (a) MV4-11 and MOLM-14 FLT3-ITD positive cells, KG1, HL-60 and TF-1 FLT3 wild type cells, and K562 FLT3 negative cells were cultured in the presence of the CDC25 inhibitor IRC-083864 (200 nM). Cells were harvested each day and counted after trypan blue coloration. The graph represents three independent experiments.
(§2) Cell lines and reagents. Human acute myeloid leukemia cell lines MOLM-14 (Matsuo Y et al, Leukemia 1997) (kindly provided by Martin Carroll, University of Pennsylvania, Philadelphia, Pa., USA) MV4-11, K562 (ACC-102 and ACC-10, DSMZ, Braunschweig, Germany) and FLT3-ITD-expressing murine BaF3 cells were cultured in RPMI 1640 medium (Gibco, Life Technologies, Carlsbad, Calif., USA) supplemented with 10% fetal bovine serum (Sigma, Saint Louis, Calif., USA). TF-1 (ATCC-CRL2003) cells were cultured in RPMI 1640 medium with 10% fetal bovine serum and GM-CSF 2 ng/ml. Concerning MOLM-14 cell line, the presence of a monoallelic 21 bp FLT3-ITD mutation and of an MLL-containing ins(11; 9)(q23;p22p23) were verified (Hematology laboratory of Toulouse University Hospital, Prof E. Delabesse and Dr I. Luquet). KG1 and HL-60 (ACC-14 and ACC-3, DSMZ) cell lines were grown in Iscove's Modified Dulbecco's Medium (IMDM, Gibco) plus 20% FBS. All cells were grown in the presence of 100 units/ml of penicillin and streptomycin (Invitrogen) at 37° C. and 5% CO2.

Mia-Paca-2 tumors = conditions: intravenous and oral routes; cited from earlier work
[2] = test system: FLT3-wild type primary AML samples; test: Differentiation of FLT3 wild-type primary AML samples; format: cell-based, human; conditions: same conditions
From the text: Patient samples. Patient AML samples were obtained after informed consent in accordance with the Declaration of Helsinki and stored at the HIMIP collection. According to the French law, HIMIP collection has been declared to the Ministry of Higher Education and Research (DC 2008-307 collection 1) and obtained a transfer agreement (AC 2008-129) after approbation by ethical committees (Comité de Protection des Personnes Sud-Ouest et Outremer II and APHP ethical committee). Clinical and biological annotations of the samples have been declared to the CNIL (Comité National Informatique et Libertés i.e. Data processing and Liberties National Committee). Frozen cells were thawed in IMDM medium with 20% FBS and immediately processed for treatment. All patients were diagnosed at the Department of Hematology of Toulouse University Hospital.
Co-cultures. […]
Flow cytometry. Apoptotic cells were detected with Annexin V-FITC detection kit from BD Pharmingen (San Diego, Calif., USA) according to the manufacturer instructions. […] Data were collected on a LSRII or a LSRFortessa cytometer (BD Biosciences), and analyzed with FlowJo software. […]

[3] = test system: HL-60 cells (FLT3 wild type); test: Cell proliferation, trypan blue counting, HL-60; format: cell-based, human
Experimental: as §1, §2

MOLM-14 cells = test: MOLM-14 xenograft in NSG mice, differentiation in vivo; conditions: 5 mg/kg/week i.p., two weeks
Experimental: (a) NSG mice were injected with 2 millions MOLM-14 cells, and treated with IRC-083864 at 5 mg/kg/week i.p. (n=4) or with vehicle buffer (n=4) as described in the Methods section. Bone marrow cells were extracted after dissection after two weeks and the expression of CD14 and CD15 on human blasts was followed by flow cytometry analysis. (b) Quantification (mean±SEM, n=4) of CD14 and CD15 expression in response to IRC-083864. (c) Morphological analyses of human cells used in (a). Original magnification ×100.
In vivo experiments. Animals were used in accordance to a protocol reviewed and approved by the Institutional Animal Care and User Ethical Committee of the UMS006 and Region Midi-Pyrénées (Approval#13-U1037-JES08). NOD/LtSz-scid IL-2Rγchainnull (NSG) mice (Sanchez P V et al) were produced at the Genotoul Anexplo platform in Toulouse (France) using breeders obtained from The Charles River Laboratory. Mice were housed in sterile conditions using HEPA filtered micro-isolators and fed with irradiated food and acidified water. Transplanted mice were treated with antibiotics (enrofloxacin) for the duration of the experiment. […] Adult mice (6 or 7-week old) were treated with 20 mg/kg Busulfan (Busilvex, Pierre Fabre, France) by i.p. administration 24 hours before injection of leukemic cells. Cultured MOLM-14 cells were washed in PBS and cleared of aggregates and debris using a 0.2 mm cell filter, and suspended in PBS at a final concentration of 2 million cells per 200 μL of PBS per mouse for i.v. injection. IRC-083864 (5 mg/kg/week) was then administrated to leukemic mice by i.p. injection. Daily monitoring of mice for symptoms of disease (ruffled coat, hunched back, weakness and reduced motility) determined the time of animal euthanasia. Cell differentiation was monitored after two IRC-083864 injections: mice were humanely killed in accordance with IACUC protocols. Bone marrow (mixed from tibias and femurs) were dissected, flushed in PBS and made into single cell suspensions for analysis by flow cytometry and cytospins.

Cc1nc2c(s1)C(=O)C=C(NCCCN(C)CCCNC1=CC(=O)c3nc(-c4cc(F)ccc4F)oc3C1=O)C2=O [IRC-083864]
proliferation of TF-1 [1]: did not decrease
growth of human Mia Paca-2 xenografts (Mia-Paca-2 tumors): reduces the growth
differentiation of FLT3-wild type samples [2]: no evidence of differentiation
proliferation of HL-60 ([3]; 200 nM): did not decrease
proliferation of HL60 upon stimulation by FLT3 ligand ([3]; FLT3 ligand stimulation): had no effect
CD11b expression on human myeloid cells in bone marrow (MOLM-14 cells): no change
CD14 expression on MOLM-14 cells from bone marrow (MOLM-14 cells): increased expression
CD15 expression on MOLM-14 cells from bone marrow (MOLM-14 cells): unchanged expression
morphology of cytospun human bone marrow cells (MOLM-14 cells): monocytic-like nuclear changes
